Experimental data published in US20240390408A1, “METHOD OF TREATING HEPATITIS C VIRUS IN PATIENTS” (Altesa BioSciences, Inc., priority 2023, published 2024).
Where two headings read alike, the source gives them in different places. Each block holds one compound with its values, some of them ahead of it.

Assay: Tissue concentrations of Formula I and its metabolites in Göttingen pigs after a single oral or intravenous dose (LC-MS/MS)
Format: in vivo
Details: for concentration at 2 h / concentration at 12 h / concentration at 3 h / concentration at 24 h: both sexes, Göttingen, pig (minipig)
Method: Tissue samples were collected at 3, 12, and 24 hours post-dose (hpd) for the oral dose and 2 and 12 hpd for the intravenous dose, snap-frozen in liquid nitrogen, and stored at −60 to −90° C. until shipment on dry ice for analysis by LC-MS/MS.
Animals were weighed the day prior to dosing to determine the dosing volume.
The compound of Formula I was dissolved in a PEG 400/DI water (60%/40% v/v) vehicle for oral dosing. For IV dosing the compound of Formula I was dissolved in a PEG 400/Cremophor RH 40/Saline (40%/10%/50% v/v) vehicle and passed through a sterile filter. […] Animals were euthanized by euthanasia solution administration under sedation, if necessary (e.g., acepromazine and or/Telazol®), followed by a Testing Facility SOP approved method to ensure death (e.g., exsanguination). Tissues were collected from two animals per sex per timepoint. Tissue samples, including the brain, heart, kidney, liver, lung, spleen, pancreas, bone marrow, duodenum, jejunum, and colon, were collected in duplicate (approximately 50±20 mg each) and placed into two separate reinforced homogenization tubes per organ (one tissue sample per tube). The exact weight (in milligrams) of each sample was recorded. Tissues samples were flash frozen in liquid nitrogen and stored at −60 to −90° C. until shipment on dry ice for analysis by LC-MS/MS.
Mobile phase A consisted of 50 mM ammonium bicarbonate buffer in HPLC grade water pH 9.8 and mobile phase B consisted of pure acetonitrile. […] Mass spectrometry analysis was performed on a QTrap 7500 Mass Spectrometer (Sciex, Framingham, MA, USA) using negative mode electrospray ionization (ESI) in multiple reaction monitoring (MRM) mode. Data analysis was performed using SCIEX OS Software (Sciex, Framingham, MA, USA).
Tissue samples were collected at 3, 12, and 24 hours post-dose for the oral dose and 2 and 12 hour post-dose for the intravenous dose.

[1] = 2-3 hours after IV 25 mg/kg or PO 125 mg/kg dosing
[2] = kidney, single intravenous bolus of Formula I 25 mg/kg, 2 hpd, read-out: Tissue concentration, kidney
[3] = kidney, single oral dose of Formula I 125 mg/kg, 3 hpd, read-out: Tissue concentration, kidney
[4] = liver, single intravenous bolus of Formula I 25 mg/kg, 2 hpd, read-out: Tissue concentration, liver
[5] = liver, single intravenous bolus of Formula I 25 mg/kg, 12 hpd, read-out: Tissue concentration, liver
[6] = liver, single oral dose of Formula I 125 mg/kg, 3 hpd, read-out: Tissue concentration in Göttingen pig liver (Table 7)
[7] = liver, single oral dose of Formula I 125 mg/kg, 3 hpd, read-out: Tissue concentration, liver
[8] = liver, single oral dose of Formula I 125 mg/kg, 12 hpd, read-out: Tissue concentration in Göttingen pig liver (Table 7)
[9] = liver, single oral dose of Formula I 125 mg/kg, 12 hpd, read-out: Tissue concentration, liver
[10] = lung, single intravenous bolus of Formula I 25 mg/kg, 2 hpd, read-out: Tissue concentration, lung
[11] = lung, single intravenous bolus of Formula I 25 mg/kg, 12 hpd, read-out: Tissue concentration, lung
[12] = lung, single oral dose of Formula I 125 mg/kg, 3 hpd, read-out: Tissue concentration, lung
[13] = spleen, single intravenous bolus of Formula I 25 mg/kg, 2 hpd, read-out: Tissue concentration, spleen
[14] = spleen, single intravenous bolus of Formula I 25 mg/kg, 12 hpd, read-out: Tissue concentration, spleen
[15] = liver, single oral dose of Formula I 125 mg/kg, 24 hpd

Brain level, additional fold lower than heart, lung and spleen [1]: approximately 10 fold
Kidney and liver levels relative to heart, lung and spleen (fold higher) [1]: approximately 10 fold
Additional decrease of levels in all organs (24 hpd after oral dose, all organs): 2-3 fold
Decrease of levels in all organs (12 hours post oral dose, all organs): 4-6 fold
concentration at 2 h (brain, single intravenous bolus of Formula I 25 mg/kg, 2 hpd, read-out: Tissue concentration, brain): 140 ± 56.7 ng/g
concentration at 12 h (brain, single intravenous bolus of Formula I 25 mg/kg, 12 hpd, read-out: Tissue concentration, brain): 6.4 ± 12.8 ng/g
concentration at 3 h (brain, single oral dose of Formula I 125 mg/kg, 3 hpd, read-out: Tissue concentration, brain): 192 ± 77.9 ng/g
concentration at 12 h (brain, single oral dose of Formula I 125 mg/kg, 12 hpd, read-out: Tissue concentration, brain): 111 ± 38.6 ng/g
concentration at 24 h (brain, single oral dose of Formula I 125 mg/kg, 24 hpd, read-out: Tissue concentration, brain): 37.9 ± 9.15 ng/g
concentration at 2 h (heart, single intravenous bolus of Formula I 25 mg/kg, 2 hpd, read-out: Tissue concentration, heart): 1990 ± 195 ng/g
concentration at 12 h (heart, single intravenous bolus of Formula I 25 mg/kg, 12 hpd, read-out: Tissue concentration, heart): 57.3 ± 23.3 ng/g
concentration at 3 h (heart, single oral dose of Formula I 125 mg/kg, 3 hpd, read-out: Tissue concentration, heart): 3370 ± 645 ng/g
concentration at 12 h (heart, single oral dose of Formula I 125 mg/kg, 12 hpd, read-out: Tissue concentration, heart): 533 ± 213 ng/g
concentration at 24 h (heart, single oral dose of Formula I 125 mg/kg, 24 hpd, read-out: Tissue concentration, heart): 240 ± 27.7 ng/g
concentration at 2 h [2]: 25400 ± 5560 ng/g
concentration at 12 h (kidney, single intravenous bolus of Formula I 25 mg/kg, 12 hpd, read-out: Tissue concentration, kidney): 701 ± 48.7 ng/g
concentration at 3 h [3]: 29400 ± 2170 ng/g
concentration at 12 h (kidney, single oral dose of Formula I 125 mg/kg, 12 hpd, read-out: Tissue concentration, kidney): 7420 ± 1440 ng/g
concentration at 24 h (kidney, single oral dose of Formula I 125 mg/kg, 24 hpd, read-out: Tissue concentration, kidney): 2740 ± 503 ng/g
concentration at 2 h [4]: 7960 ± 1530 ng/g
concentration at 12 h [5]: 201 ± 126 ng/g
concentration at 3 h [6]: 66.3 ± 23.7 µM
concentration at 3 h [7]: 18200 ± 6500 ng/g
concentration at 12 h [8]: 9.46 ± 5.56 µM
concentration at 12 h [9]: 2600 ± 1530 ng/g
concentration at 24 h (liver, single oral dose of Formula I 125 mg/kg, 24 hpd, read-out: Tissue concentration in Göttingen pig liver (Table 7)): 4.08 ± 1.84 µM
concentration at 24 h (liver, single oral dose of Formula I 125 mg/kg, 24 hpd, read-out: Tissue concentration, liver): 1120 ± 505 ng/g
concentration at 2 h [10]: 2330 ± 130 ng/g
concentration at 12 h [11]: 93.9 ± 18.8 ng/g
concentration at 3 h [12]: 3580 ± 1060 ng/g
concentration at 12 h (lung, single oral dose of Formula I 125 mg/kg, 12 hpd, read-out: Tissue concentration, lung): 536 ± 101 ng/g
concentration at 24 h (lung, single oral dose of Formula I 125 mg/kg, 24 hpd, read-out: Tissue concentration, lung): 242 ± 85.7 ng/g
concentration at 2 h [13]: 1620 ± 181 ng/g
concentration at 12 h [14]: 49.2 ± 9.7 ng/g
concentration at 3 h (spleen, single oral dose of Formula I 125 mg/kg, 3 hpd, read-out: Tissue concentration, spleen): 3010 ± 433 ng/g
concentration at 12 h (spleen, single oral dose of Formula I 125 mg/kg, 12 hpd, read-out: Tissue concentration, spleen): 539 ± 195 ng/g
concentration at 24 h (spleen, single oral dose of Formula I 125 mg/kg, 24 hpd, read-out: Tissue concentration, spleen): 292 ± 139 ng/g
12 hpd levels after IV dosing, fold lower than corresponding levels after PO dosing (each organ, 12 hpd, IV 25 mg/kg vs PO 125 mg/kg): approximately 10 fold
SMILES: C[C@@]1(O)[C@H](O)[C@@H](CO)O[C@H]1n1ccc(=O)[nH]c1=S [Formula VI]

concentration at 12 h (125 mg/kg, liver, 12 hpd after oral dosing with Formula I, assumed tissue density of 1 g/mL, read-out: Concentration present in the liver): ~1 µM
concentration at 12 h (lung, 25 mg/kg, lungs, 12 hrs post-dose after IV dosing with Formula I, read-out: Concentration maintained in lungs): ~1 µM
concentration at 2 h [2]: 4410 ± 2040 ng/g
concentration at 3 h [3]: 613 ± 280 ng/g
concentration at 2 h [4]: 2610 ± 892 ng/g
concentration at 12 h [5]: 62.8 ± 126 ng/g
concentration at 3 h [6]: 12.9 ± 12.3 µM
concentration at 3 h [7]: 6670 ± 6310 ng/g
concentration at 12 h [8]: 0.88 ± 1.05 µM
concentration at 12 h [9]: 452 ± 541 ng/g
concentration at 2 h [10]: 3620 ± 2770 ng/g
concentration at 12 h [11]: 455 ± 263 ng/g
concentration at 3 h [12]: 170 ± 29.5 ng/g
concentration at 2 h [13]: 318 ± 181 ng/g
concentration at 12 h [14]: 47.5 ± 95 ng/g
Tissue concentration, brain (brain, single intravenous bolus of Formula I 25 mg/kg, 2 hpd): BQL
Tissue concentration, brain (brain, single intravenous bolus of Formula I 25 mg/kg, 12 hpd): BQL
Tissue concentration, brain (brain, single oral dose of Formula I 125 mg/kg, 3 hpd): not detected and BQL
Tissue concentration, brain (brain, single oral dose of Formula I 125 mg/kg, 12 hpd): BQL
Tissue concentration, brain (brain, single oral dose of Formula I 125 mg/kg, 24 hpd): BQL
Tissue concentration, heart (heart, single intravenous bolus of Formula I 25 mg/kg, 2 hpd): 405 ± 149 ng/g
Tissue concentration, heart (heart, single intravenous bolus of Formula I 25 mg/kg, 12 hpd): 140 ± 32.0 ng/g
Tissue concentration, heart (heart, single oral dose of Formula I 125 mg/kg, 3 hpd): 64.3 ± 75.4 ng/g
Tissue concentration, heart (heart, single oral dose of Formula I 125 mg/kg, 12 hpd): BQL
Tissue concentration, heart (heart, single oral dose of Formula I 125 mg/kg, 24 hpd): BQL
Tissue concentration, kidney (kidney, single intravenous bolus of Formula I 25 mg/kg, 2 hpd): 4410 ± 2040 ng/g
Tissue concentration, kidney (kidney, single intravenous bolus of Formula I 25 mg/kg, 12 hpd): not detectable and BQL
Tissue concentration, kidney (kidney, single oral dose of Formula I 125 mg/kg, 3 hpd): 613 ± 280 ng/g
Tissue concentration, kidney (kidney, single oral dose of Formula I 125 mg/kg, 12 hpd): BQL
Tissue concentration, kidney (kidney, single oral dose of Formula I 125 mg/kg, 24 hpd): BQL
Tissue concentration, liver (liver, single intravenous bolus of Formula I 25 mg/kg, 2 hpd): 2610 ± 892 ng/g
Tissue concentration, liver (liver, single intravenous bolus of Formula I 25 mg/kg, 12 hpd): 62.8 ± 126 ng/g
Tissue concentration, liver (liver, single oral dose of Formula I 125 mg/kg, 3 hpd): 6670 ± 6310 ng/g
Tissue concentration, liver (liver, single oral dose of Formula I 125 mg/kg, 12 hpd): 452 ± 541 ng/g
Tissue concentration in Göttingen pig liver (Table 7) [15]: BQL
Tissue concentration, liver [15]: BQL
Tissue concentration, lung (lung, single intravenous bolus of Formula I 25 mg/kg, 2 hpd): 3620 ± 2770 ng/g
Tissue concentration, lung (lung, single intravenous bolus of Formula I 25 mg/kg, 12 hpd): 455 ± 263 ng/g
Tissue concentration, lung (lung, single oral dose of Formula I 125 mg/kg, 3 hpd): 170 ± 29.5 ng/g
Tissue concentration, lung (lung, single oral dose of Formula I 125 mg/kg, 12 hpd): BQL
Tissue concentration, lung (lung, single oral dose of Formula I 125 mg/kg, 24 hpd): BQL
Tissue concentration, spleen (spleen, single intravenous bolus of Formula I 25 mg/kg, 2 hpd): 318 ± 181 ng/g
Tissue concentration, spleen (spleen, single intravenous bolus of Formula I 25 mg/kg, 12 hpd): 47.5 ± 95.0 ng/g
Tissue concentration, spleen (spleen, single oral dose of Formula I 125 mg/kg, 3 hpd): not detected and BQL
Tissue concentration, spleen (spleen, single oral dose of Formula I 125 mg/kg, 12 hpd): BQL
Tissue concentration, spleen (spleen, single oral dose of Formula I 125 mg/kg, 24 hpd): BQL
SMILES: CC1(O)[C@@H](O)[C@@H](COP(=O)(O)OP(=O)(O)OP(=O)(O)O)O[C@H]1n1ccc(=O)[nH]c1=S (stereo partly drawn) [Formula V]
